Measured values published in patent publication US20240294521A1, “CRYSTALLINE FORMS, COMPOSITIONS CONTAINING SAME, AND METHODS OF THEIR USE” (Repare Therapeutics Inc., priority 2021, published 2024).
In brackets after ≈: the same amount, converted by molar mass. Entries after “also recorded” stand apart in the source; their conditions may differ. Structures can show the parent of a compound that is named as a salt. Where two headings read alike, the source gives them in different places. One block for each compound: values may come before it.

Assays:
Type in all cases: physicochemical
[1] = Water solubility of free form solid states at room temperature; conditions: for XRPD Pattern (solubility measured on); form in water: suspended in water, XRPD after 1 day, PLM after 5 days; for form after suspension in water (microscopic images): five days, room temperature
Method: Example 4. Water Solubility of Free Form Solid States at Room Temperature
The samples were shaken at 25° C., 200 rpm. XRPD (taken after the crystalline forms were mixed with water, and after 1 day suspended in water) and PLM (after 5 days) were recorded. […] Table 13 summarizes the water solubility of crystalline forms C and F.

[2] = Dynamic Vapor Sorption analysis (DVS), hygroscopicity; conditions: for Hygroscopicity by DVS: 25° C./0-90% RH change; for form change by XRPD after DVS: after 0-90% RH; for Hygroscopicity: weight increase at 80% RH, 25° C.; for moisture uptake: 0-90% RH change by DVS
Method: Dynamic Vapor Sorption Analysis (DVS)
• Instrument: DVS Intrinsic, Surface Measurement Systems • Parameters: 25° C., 0-90-0% RH for 2 cycles

[3] = Storage stability of the crystalline forms (25° C./60% RH, 40° C./75% RH); conditions: for XRPD of the samples after exposure vs t=0: 25° C./60% RH and 40° C./75% RH, closed and open vial, 1, 2 and 4 weeks; for appearance after exposure / solid-form stability (XRPD): one-week exposure to 75% RH at 40° C.
Method: Example 8. Storage Stability of the Crystalline Forms
The forms were evaluated with a closed vial and an open vial.
Crystalline Hydrogen Sulfate Form B. […] Approximately 30 mg of crystalline hydrogen sulfate form B was weighed into a 4 mL vial and covered with a KIMWIPE. […]
Crystalline Sulfate Form A. […] Approximately 30 mg of crystalline sulfate form A was weighed into a 4 mL vial and covered with a KIMWIPE. […]

[4] = Form stability of crystalline form F in 0.5% methylcellulose (400 cps)/0.02% sodium lauryl sulfate
Method: The samples were evaluated at designated time points and PLM images were recorded up to 7 days.

[5] = Form stability of crystalline hydrogen sulfate forms A and B in buffered 0.5% methylcellulose/0.02% sodium lauryl sulfate
Method: Example 7. Form Stability of Crystalline Hydrogen Sulfate Forms A and B in Buffered 0.5% Methylcellulose (v/v) (400 cps)/0.02% Sodium Lauryl Sulfate (v/v)
Crystalline hydrogen sulfate form A was used for form stability studies in 0.5% methylcellulose (v/v) (400 cps)/0.02% sodium lauryl sulfate (v/v) with citrate buffer (pH 4.5) with a concentration of 0.1 mg/mL, 0.2 mg/mL, 0.5 mg/mL and 1 mg/mL with and without stirring. HPLC purity was obtained for the solutions at 3 and 7 days.
An additional sample of crystalline hydrogen sulfate form A in the same buffered formulation was prepared with a concentration of 1 mg/ml and stirred at 500 rpm at room temperature. The sample was monitored every hour for form assessment. The solution was nearly clear at the first 3 hours.

[6] = as above; conditions: 10 mg in 10 mL MC/SLS with (pH 4.5) and without sodium citrate buffer, 500 rpm, room temperature, overnight
[7] = Dynamic Vapor Sorption analysis (DVS), hygroscopicity; conditions: 2-95% RH
[8] = 25° C./60% RH, t = 4 weeks, open vial
[9] = 25° C./60% RH, t = 7 d, open vial
[10] = 25° C./60% RH, t = 14 d, open vial
[11] = 40° C./75% RH, t = 4 weeks, closed vial
[12] = 40° C./75% RH, t = 4 weeks, open vial
[13] = 40° C./75% RH, t = 7 d, open vial
[14] = 40° C./75% RH, t = 14 d, open vial

- XRPD Pattern (solubility measured on); form in water ([1]; 25° C.): converted to crystalline form C
- solubility ([1]; water, 25 °C, water, thermodynamic from solid, water, 25° C., label = starting material, measured on the form named in the XRPD Pattern column, read-out: Solubility): 50 µg/mL (≈ 122 µM)
- form after suspension in water (microscopic images) ([1]; water): converted to crystalline form C
- Hygroscopicity by DVS [2]: slightly hygroscopic
- form change by XRPD after DVS [2]: did not change
Compound: C[C@@H]1COCCN1c1cc([C@]2(O)C[C@H]3CC[C@@H](C2)O3)c2cnn(-c3cc[nH]n3)c2n1 [Crystalline form B]
- Hygroscopicity [2]: Slightly hygroscopic (e.g., ≥0.2% and <2% (Slightly hygroscopic (e.g., ≥0.2% and <2% weight increase at 80% RH, 25° C.))

- solubility ([1]; water, 25 °C, water, thermodynamic from solid, water, 25° C., read-out: water solubility): ~50 µg/mL (≈ 122 µM)
- Hygroscopicity by DVS [2]: slightly hygroscopic
Compound: C[C@@H]1COCCN1c1cc([C@]2(O)C[C@H]3CC[C@@H](C2)O3)c2cnn(-c3cc[nH]n3)c2n1 [Crystalline form C]
- form change by XRPD after DVS [2]: XRPD pattern changed after DVS compared to the starting material and matched with crystalline form J
- Hygroscopicity [2]: Slightly hygroscopic (e.g., ≥0.2% and <2% weight (Slightly hygroscopic (e.g., ≥0.2% and <2% weight increase at 80% RH, 25° C.))

- XRPD of the samples after exposure vs t=0 [3]: matched with the starting materials
- DSC [3, 8]: No change
- HPLC [3, 8]: 99.94%
- TG weight loss by 170° C. [3, 8]: 4.2 wt % loss
- XRPD [3, 8]: No change
- DSC [3, 9]: No change
- HPLC [3, 9]: 99.925%
- TG weight loss by 170° C. [3, 9]: 4.2 wt % loss
- XRPD [3, 9]: No change
- DSC [3, 10]: No change
- HPLC [3, 10]: 100%
- TG weight loss by 170° C. [3, 10]: 4.2 wt % loss
- XRPD [3, 10]: No change
- DSC [3, 11]: No change
- HPLC [3, 11]: 99.94%
- TG weight loss by 170° C. [3, 11]: 4.2 wt % loss
- XRPD [3, 11]: No change
- DSC [3, 12]: No change
- HPLC [3, 12]: 99.94%
- TG weight loss by 170° C. [3, 12]: 4.2 wt % loss
- XRPD [3, 12]: No change
- DSC [3, 13]: No change
- HPLC [3, 13]: 99.922%
- TG weight loss by 170° C. [3, 13]: 4.2 wt % loss
- XRPD [3, 13]: No change
- DSC [3, 14]: No change
- HPLC [3, 14]: 100%
- TG weight loss by 170° C. [3, 14]: 4.2 wt % loss
- XRPD [3, 14]: No change
- HPLC ([3]; t = 0): 99.903%
- TG weight loss by 170° C. ([3]; t = 0): 4.7 wt % loss by
- water solubility ([1]; water, 25° C.): about 0.046 mg/mL
- solubility ([1]; water, 25° C., label = starting material, measured on the form named in the XRPD Pattern column): 46 µg/mL (≈ 112 µM)
- form after suspension in water (microscopic images) ([1]; water): unchanged
- Hygroscopicity by DVS [2]: non hygroscopic
- form change by XRPD after DVS [2]: no form change
- aqueous solubility (qualitative) [4]: very low
- form change ([4]; 0.5% methylcellulose (400 cps)/0.02% sodium lauryl sulfate, room temperature, 7 days, PLM and XRPD): No form change
Compound: C[C@@H]1COCCN1c1cc([C@]2(O)C[C@H]3CC[C@@H](C2)O3)c2cnn(-c3cc[nH]n3)c2n1 [Crystalline form F]
- XRPD Pattern (solubility measured on); form in water ([1]; 25° C.): remained unchanged; also recorded: Crystalline form F
- Hygroscopicity [2]: Non hygroscopic (e.g., <0.2% weight increase at (Non hygroscopic (e.g., <0.2% weight increase at 80% RH, 25° C.))

- XRPD of the samples after exposure vs t=0 [3]: matched with the starting materials
- HPLC ([3]; 25° C./60% RH, t = 4 weeks, closed vial): 99.92%
- HPLC [3, 8]: 99.91%
- HPLC ([3]; 25° C./60% RH, t = 7 d, closed vial): 99.936%
- HPLC [3, 9]: 99.937%
- HPLC ([3]; 25° C./60% RH, t = 14 d, closed vial): 100%
- HPLC [3, 10]: 99.944%
- HPLC [3, 11]: 99.92%
- HPLC [3, 12]: 99.91%
- HPLC ([3]; 40° C./75% RH, t = 7 d, closed vial): 99.938%
- HPLC [3, 13]: 99.938%
- HPLC ([3]; 40° C./75% RH, t = 14 d, closed vial): 100%
- HPLC [3, 14]: 100%
- HPLC ([3]; t = 0, baseline before storage): 99.902%
- moisture uptake [2]: 1.42%
- Hygroscopicity by DVS [2]: slightly hygroscopic
- form change by XRPD after DVS [2]: No form change
- HPLC purity of solution ([5]; 0.1 mg/mL, stir, Day 3, MC/SLS with 50 mM citrate buffer (pH 4.5)): 99.82%
- HPLC purity of solution ([5]; 0.1 mg/mL, stir, Day 7, MC/SLS with 50 mM citrate buffer (pH 4.5)): 99.93%
- HPLC purity of solution ([5]; 0.1 mg/mL, w/o stir, Day 3, MC/SLS with 50 mM citrate buffer (pH 4.5)): 99.82%
- HPLC purity of solution ([5]; 0.2 mg/mL, stir, Day 3, MC/SLS with 50 mM citrate buffer (pH 4.5)): 99.89%
- HPLC purity of solution ([5]; 0.2 mg/mL, stir, Day 7, MC/SLS with 50 mM citrate buffer (pH 4.5)): 99.86%
- HPLC purity of solution ([5]; 0.2 mg/mL, w/o stir, Day 3, MC/SLS with 50 mM citrate buffer (pH 4.5)): 99.89%
- HPLC purity of solution ([5]; 0.5 mg/mL, stir, Day 3, MC/SLS with 50 mM citrate buffer (pH 4.5)): 99.91%
- HPLC purity of solution ([5]; 0.5 mg/mL, stir, Day 7, MC/SLS with 50 mM citrate buffer (pH 4.5)): 99.87%
- HPLC purity of solution ([5]; 0.5 mg/mL, w/o stir, Day 3, MC/SLS with 50 mM citrate buffer (pH 4.5)): 99.91%
- HPLC purity of solution ([5]; 1 mg/mL, stir, Day 3, MC/SLS with 50 mM citrate buffer (pH 4.5)): 99.93%
- HPLC purity of solution ([5]; 1 mg/mL, stir, Day 7, MC/SLS with 50 mM citrate buffer (pH 4.5)): 99.94%
- HPLC purity of solution ([5]; 1 mg/mL, w/o stir, Day 3, MC/SLS with 50 mM citrate buffer (pH 4.5)): 99.89%
- purity of the solutions (HPLC) ([5]; 0.1-1 mg/mL, with and without stirring, 3 and 7 days, citrate buffer pH 4.5): 99.8-99.9%
Compound: C[C@@H]1COCCN1c1cc([C@]2(O)C[C@H]3CC[C@@H](C2)O3)c2cnn(-c3cc[nH]n3)c2n1 [Crystalline hydrogen sulfate form A]
- Hygroscopicity [2]: Slightly hygroscopic (e.g., ≥0.2% and <2% weight (Slightly hygroscopic (e.g., ≥0.2% and <2% weight increase at 80% RH, 25° C.))
- form assessment (precipitate, XRPD) ([5]; 1 mg/ml in buffered MC/SLS, stirred at 500 rpm, room temperature, monitored every hour): After 4 hours, crystalline form C was observed; also recorded: Precipitation of the free form, crystalline form C was observed after 3 hours

- appearance after exposure [3]: remained a flowable, white powder
- solid-form stability (XRPD) [3]: no significant changes
- moisture uptake [2]: 15.75%
- Hygroscopicity by DVS [2]: hygroscopic
Compound: C[C@@H]1COCCN1c1cc([C@]2(O)C[C@H]3CC[C@@H](C2)O3)c2cnn(-c3cc[nH]n3)c2n1 [Crystalline hydrogen sulfate form B]
- resulting solid form (XRPD) [6]: convert to crystalline form C; also recorded: The resulting solids were determined to be the free form, crystalline form C as confirmed by XRPD (FIG. 38)
- Hygroscopicity [2]: Hygroscopic (e.g., ≥2% and <15% weight increase (Hygroscopic (e.g., ≥2% and <15% weight increase at 80% RH, 25° C.))

- appearance after exposure [3]: remained a flowable, white powder
- Hygroscopicity [7]: Hygroscopic
- weight increase [7]: 2.8%
Compound: C[C@@H]1COCCN1c1cc([C@]2(O)C[C@H]3CC[C@@H](C2)O3)c2cnn(-c3cc[nH]n3)c2n1 [Crystalline sulfate form A]
- solid-form stability (XRPD) [3]: changed to a mixture of crystalline sulfate form A+another crystalline form of a sulfate salt
